From patent US8735414B2 (priority 2009, dated 2014)

How the values were obtained:
[1] = system: bicistronic HCV replicon (replicon RNA, GenBank Accession No. AJ242654); assay: HCV Replicon Assay; type: cell-based; conditions: Hepatitis C virus, 72 h, read-out: Replicon IC50

| Compound | IC50 [1] [nM] | melting point [°C] |
| --- | --- | --- |
| Cc1ccc2c(c1)c(C#N)c(-c1ccc(S(=O)(=O)NC(CF)CF)cn1)n2C1CCCCC1 [compound 199, 6-(3-cyano-1-cyclohexyl-5-methyl-1H-indol-2-yl)-N-(1,3-difluoropropan-2-yl)pyridine-3-sulfonamide] | < 500 | 210 to 215 |
| C[C@H](NS(=O)(=O)c1ccc(-c2c(C#N)c3cc(F)c(Cl)cc3n2C2CCC2)nc1)C(F)(F)F [compound 360, 6-(6-chloro-3-cyano-1-cyclobutyl-5-fluoro-1H-indol-2-yl)-N-[(2S)-1,1,1-trifluoropropan-2-yl]pyridine-3-sulfonamide] | < 500 | 203 to 206 |
| N#Cc1c(-c2ncc(S(=O)(=O)NC(CF)CF)cn2)n(-c2ccc(F)cc2)c2cc(OC(F)F)ccc12 [compound 477, 2-[3-cyano-6-(difluoromethoxy)-1-(4-fluorophenyl)-1H-indol-2-yl]-N-(1,3-difluoropropan-2-yl)pyrimidine-5-sulfonamide] | < 500 | 213 to 216 |
| CCc1cc2c(cc1F)c(C(N)=O)c(-c1ccc(S(=O)(=O)N[C@@H](C)C(F)(F)F)cn1)n2-c1cccc(Cl)c1 [compound 1027, 1-(3-chlorophenyl)-6-ethyl-5-fluoro-2-(5-{[(2S)-1,1,1-trifluoropropan-2-yl]sulfamoyl}pyridin-2-yl)-1H-indole-3-carboxamide] | < 500 | 200 to 205 |
| Cc1cc2c(cc1F)c(C(N)=O)c(-c1ccc(S(=O)(=O)NC(C)(C)C(F)(F)F)cn1)n2C1CCCC1 [compound 701, 1-cyclopentyl-5-fluoro-6-methyl-2-{5-[(1,1,1-trifluoro-2-methylpropan-2-yl)sulfamoyl]pyridin-2-yl}-1H-indole-3-carboxamide] | < 500 | 211 to 214 |
| C[C@H](NS(=O)(=O)c1ccc(-c2c(C#N)c3ccc(Cl)cc3n2-c2ccccn2)nc1)C1CC1 [compound 488, 6-[6-chloro-3-cyano-1-(pyridin-2-yl)-1H-indol-2-yl]-N-[(1S)-1-cyclopropylethyl]pyridine-3-sulfonamide] | < 500 | 199 to 201 |
| CCc1cc(F)c2c(C(N)=O)c(-c3ccc(NS(=O)(=O)C(C)(C)C)nc3)n(-c3ccccc3)c2c1 [compound 1111, 2-{6-[(tert-butylsulfonyl)amino]pyridin-3-yl}-6-ethyl-4-fluoro-1-phenyl-1H-indole-3-carboxamide] | < 500 | 288 to 294 |
| C[C@H](NS(=O)(=O)c1ccc(-c2c(C#N)c3cc(Cl)ccc3n2-c2ccccn2)nc1)C(F)(F)F [compound 442, 6-[5-chloro-3-cyano-1-(pyridin-2-yl)-1H-indol-2-yl]-N-[(2S)-1,1,1-trifluoropropan-2-yl]pyridine-3-sulfonamide] | < 500 | 186 to 188 |
| CC(C)c1ccc2c(C#N)c(-c3ccc(S(=O)(=O)NC(CF)CF)cn3)n(C3CCCC3)c2c1 [compound 457, 6-[3-cyano-1-cyclopentyl-6-(propan-2-yl)-1H-indol-2-yl]-N-(1,3-difluoropropan-2-yl)pyridine-3-sulfonamide] | < 500 | 163 to 172 |
| N#Cc1c(-c2ccc(S(=O)(=O)NC(CF)CF)cn2)n(-c2ccccc2)c2cc(C3CC3)ccc12 [compound 95, 6-(3-cyano-6-cyclopropyl-1-phenyl-1H-indol-2-yl)-N-(1,3-difluoropropan-2-yl)pyridine-3-sulfonamide] | < 500 | 171 to 175 |
| N#Cc1c(-c2ccc(S(=O)(=O)NC3(C(F)(F)F)CCC3)cn2)n(C2CCCC2)c2cc(OC(F)F)ccc12 [compound 588, 6-[3-cyano-1-cyclopentyl-6-(difluoromethoxy)-1H-indol-2-yl]-N-[1-(trifluoromethyl)cyclobutyl]pyridine-3-sulfonamide] | < 500 | 172 to 176 |
| CC(C)NS(=O)(=O)c1cnc(-c2c(C#N)c3ccc(C4CC4)cc3n2C2CCCC2)nc1 [compound 125, 2-(3-cyano-1-cyclopentyl-6-cyclopropyl-1H-indol-2-yl)-N-(propan-2-yl)pyrimidine-5-sulfonamide] | < 500 | 211 to 212 |
| CC[C@H](NS(=O)(=O)c1ccc(-c2c(C#N)c3cc(F)c(C)cc3n2C2CCCC2)nc1)C(F)(F)F [compound 821, 6-(3-cyano-1-cyclopentyl-5-fluoro-6-methyl-1H-indol-2-yl)-N-[(2S)-1,1,1-trifluorobutan-2-yl]pyridine-3-sulfonamide] | < 500 | 201 to 207 |
| CC(C)(NS(=O)(=O)c1ccc(-c2c(C#N)c3c(F)cc(C4CC4)cc3n2-c2ncccn2)nc1)C(F)(F)F [compound 1098, 6-[3-cyano-6-cyclopropyl-4-fluoro-1-(pyrimidin-2-yl)-1H-indol-2-yl]-N-(1,1,1-trifluoro-2-methylpropan-2-yl)pyridine-3-sulfonamide] | 500 to 2000 | 198 to 200 |
| Cc1cc2c(cc1F)cc(-c1ccc(S(=O)(=O)N[C@@H](C)C(F)(F)F)cn1)n2-c1nccs1 [compound 903, 6-[5-fluoro-6-methyl-1-(1,3-thiazol-2-yl)-1H-indol-2-yl]-N-[(2S)-1,1,1-trifluoropropan-2-yl]pyridine-3-sulfonamide] | < 500 | 224 to 230 |
| Cc1ccc2c(c1F)c(C#N)c(-c1ccc(S(=O)(=O)N[C@@H](C)C(F)(F)F)cn1)n2C1CCCC1 [compound 615, 6-(3-cyano-1-cyclopentyl-4-fluoro-5-methyl-1H-indol-2-yl)-N-[(2S)-1,1,1-trifluoropropan-2-yl]pyridine-3-sulfonamide] | < 500 | 186 to 197 |
| Cc1cc2c(cc1F)c(C#N)c(-c1ccc(S(=O)(=O)N[C@@H](C)C(F)(F)F)cn1)n2-c1ccc(S(N)(=O)=O)s1 [compound 1034, 6-[3-cyano-5-fluoro-6-methyl-1-(5-sulfamoylthiophen-2-yl)-1H-indol-2-yl]-N-[(2S)-1,1,1-trifluoropropan-2-yl]pyridine-3-sulfonamide] | 500 to 2000 | 131.6 to 137.7 |
| CC(C)NS(=O)(=O)c1cnc(-c2c(C#N)c3cc(F)ccc3n2C2CCCCC2)nc1 [compound 526, 2-(3-cyano-1-cyclohexyl-5-fluoro-1H-indol-2-yl)-N-(propan-2-yl)pyrimidine-5-sulfonamide] | < 500 | 223 to 225 |
| Cc1cc2c(cc1F)c(C(=O)O)c(-c1ccc(S(=O)(=O)NC3(C(F)(F)F)CC3)cn1)n2C1CCCCC1 [compound 835, 1-cyclohexyl-5-fluoro-6-methyl-2-(5-{[1-(trifluoromethyl)cyclopropyl]sulfamoyl}pyridin-2-yl)-1H-indole-3-carboxylic acid] | < 500 | 205 to 213 |
| C[C@H](NS(=O)(=O)c1ccc(-c2c(C#N)c3ccc(Cl)cc3n2C2CCCCC2)nc1)C(F)(F)F [compound 515, 6-(6-chloro-3-cyano-1-cyclohexyl-1H-indol-2-yl)-N-[(2S)-1,1,1-trifluoropropan-2-yl]pyridine-3-sulfonamide] | < 500 | 217 to 224 |
